The source of these data is PubChem BioAssay AID493250 (Broad Institute, 2011).

Activity calls are given as the source filed them.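 Rule for the calls: active = signal decrease with fitted half-maximal dose at or below ten times the highest valid tested dose; inconclusive = poor fit, or flat fit at 30 to 70% inhibition; inactive = the rest.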

The assay deals with Zinc finger protein mex-5 (Caenorhabditis elegans) (UniProt Q9XUB2). Kind of assay: MEX-5 zinc finger-RNA interaction blockers – biochemical, fluorescence polarization, C. elegans, cherry-picked, round 3, dose response (AID 493250). The conditions noted are these: purified MEX-5-MBP, FITC-TCR2 RNA fluorescence polarization; for activity change, negative = inhibition: at 10 µM (top of the series).
Sequence of Zinc finger protein mex-5 (Caenorhabditis elegans) (Q9XUB2 whole entry, looked up): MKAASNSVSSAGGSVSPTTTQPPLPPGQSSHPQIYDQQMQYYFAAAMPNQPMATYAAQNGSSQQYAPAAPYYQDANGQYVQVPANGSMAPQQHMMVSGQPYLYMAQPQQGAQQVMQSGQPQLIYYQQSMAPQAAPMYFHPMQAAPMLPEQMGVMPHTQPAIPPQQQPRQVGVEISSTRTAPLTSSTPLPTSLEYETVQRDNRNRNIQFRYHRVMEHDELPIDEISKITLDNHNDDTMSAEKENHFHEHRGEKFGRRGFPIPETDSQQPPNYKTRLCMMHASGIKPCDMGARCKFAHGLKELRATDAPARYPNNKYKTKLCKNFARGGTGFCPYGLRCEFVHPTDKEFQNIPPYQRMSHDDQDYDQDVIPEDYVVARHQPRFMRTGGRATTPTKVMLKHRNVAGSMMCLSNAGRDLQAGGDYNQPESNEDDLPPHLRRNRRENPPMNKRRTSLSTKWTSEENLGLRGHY

For `C=CCn1c(Cc2nc3ccc(Cl)cc3[nH]2)n[nH]c1=S`, the “activity change, negative = inhibition” value was “inactive”.
Same read-out and setting: in the case of `O=C(NN=C1C2CC3CC1CC(Cl)(C3)C2)c1ccccn1` it was “inactive”; in that of `COc1cc(/C=C2/C(C)=C(C#N)c3nc(N)c(C#N)c(C)c32)ccc1OCC(=O)O`, “inactive”.
With `CSc1ccc(C(c2c(C(=O)O)[nH]c3ccccc23)c2c(C(=O)O)[nH]c3ccccc23)cc1`, the “activity change, negative = inhibition” value is “inactive”.
Still for that read-out and setting: in the case of `Cn1nc(C(=O)NNC(=O)c2ccc(Cl)cc2)ccc1=O` it was “inactive”; in that of `Nc1ccccc1C(=O)NNC(=O)C(=O)/C=C(\O)c1ccccc1`, “inactive”; in that of `Cc1nc2cc(C(=O)O)ccc2n1-c1ccc(F)cc1F`, “inactive”.
Consider `O=C(O)c1cc(Oc2ccc(C(F)(F)F)cc2Cl)ccc1[N+](=O)[O-]`, for which the “activity change, negative = inhibition” value is “inactive”.
Take `CCN(CC)c1ccc2nc3ccccc3[n+](CC)c2c1`: the “activity change, negative = inhibition” value is “inactive”.
With `CC(C)=CCc1c(O)cc(O)c2c(=O)c(O[C@@H]3O[C@@H](C)[C@H](O)[C@@H](O)[C@H]3O)c(-c3ccc(O)cc3)oc12`, the “activity change, negative = inhibition” value is “inactive”.
Turning to `O=[N+]([O-])c1cc(S(=O)(=O)c2ccc(O)c([N+](=O)[O-])c2)ccc1O`, the “activity change, negative = inhibition” value is “inactive”.
As for `Cc1ccc(C(=O)N/C(=C\c2ccc(-c3cccc([N+](=O)[O-])c3)o2)C(=O)NCCCN(C)C)cc1`, the “activity change, negative = inhibition” value was “inactive”.
Consider `Cc1cc(C)c[n+](-c2[nH]c(=O)sc2/C=N/N=C(\N)[S-])c1`, for which the “activity change, negative = inhibition” value was “inactive”.
For the molecule `CC(=O)Nc1ccc2c(c1)C(=O)N(c1cccc(C)c1)C2=O`, the “activity change, negative = inhibition” value was “inactive”.
On to `Cc1cc([N+](=O)[O-])nn1CC(=O)NNC(=S)Nc1ccc(F)cc1`, for which the “activity change, negative = inhibition” value was “inactive”.
For the molecule `CCn1c(C)nc2c1C(=O)c1ccccc1C2=O`, the “activity change, negative = inhibition” value is “inactive”.
On to `COc1cc2c(cc1OC)[C@@H](Cc1ccc(OCCC#N)cc1)N(C)CC2`, for which the “activity change, negative = inhibition” value is “inactive”.
For the molecule `O=C(O)CCC(=O)NNc1ncnc2ccccc12`, the “activity change, negative = inhibition” value was “inactive”.
Regarding `COC(=O)/C(C#N)=C/c1c(-c2ccccc2)nc2n1CCS2`, the “activity change, negative = inhibition” value was “inactive”.
Take `O=[N+]([O-])c1ccc(-c2cn3nc(-c4ccccc4)c(-c4ccccc4)nc3n2)cc1`: the “activity change, negative = inhibition” value is “inactive”.
Same read-out and setting: in the case of `Cc1cc(/C=C2\C(=O)NC(=O)N(c3cccc(F)c3)C2=O)c(C)n1-c1cc(C(=O)O)cc(C(=O)O)c1` it was “inactive”; in that of `CC1(C)NC(=O)NC2(C)NC(=O)NC(C)(C)C12` (stereo unspecified), “inactive”.
As for `O=C(NNC(=O)c1ccccc1[N+](=O)[O-])c1ccco1`, the “activity change, negative = inhibition” value was “inactive”.
Turning to `COc1ccc(NC(=O)c2cccc(-c3ccc(O)cc3)c2)cn1`, the AC50 was 3.91 µM.
Consider `CCN(CC)c1ccc(N2C(=O)c3ccccc3C2=O)cc1`, for which the “activity change, negative = inhibition” value was “inactive”.
As for `N=C1CCC(=N)c2c1c(O)c1ccccc1c2O`, the AC50 is 6.52 µM.
On to `CCCc1cc(C(=O)Cc2ccc(C(=O)OCC)o2)c(O)cc1O`, for which the “activity change, negative = inhibition” value is “inactive”.
As for `O=c1cc(-c2ccccc2)oc2ccc(O)cc12`, the “activity change, negative = inhibition” value is “inactive”.
`COC(=O)C1=C(C)OC(N)=C(C#N)C1c1cc(OC)c(OCC(N)=O)cc1Cl` (stereo unspecified): the “activity change, negative = inhibition” value is “inactive”.
On to `O=c1[nH]cnc2c1C(c1ccccc1[N+](=O)[O-])c1c(nc[nH]c1=O)O2`, for which the “activity change, negative = inhibition” value is “inactive”.
The same measure, in the same setting: in the case of `Nc1nonc1C(=O)N/N=C/c1cc(Br)ccc1O` it was “inactive”; in that of `CN(C)C(=O)Oc1ccc2c(c1)O/C(=C\c1ccccc1)C2=O`, “inactive”; in that of `CCN=c1scc(-c2ccco2)n1/N=C/c1ccc(O)cc1`, “inactive”.
For `NC(=S)N=Nc1c(O)[nH]c2ccccc12`, the “activity change, negative = inhibition” value was “inactive”.
For `O=C(O)c1ccc(N2Cc3ccccc3C2)cc1O`, the “activity change, negative = inhibition” value was “inactive”.
Consider `Cc1ccc(C(=O)O)cc1-c1ccc(/C=C2\SC(=O)N(CC(=O)Nc3ccccc3)C2=O)o1`, for which the half-maximal activity concentration (AC50) is 2.74 µM.
With `CCc1cc(-c2n[nH]c(C)c2-c2nc3ccccc3s2)c(O)cc1OCC(=O)NN`, the “activity change, negative = inhibition” value is “inactive”.
Regarding `CCOc1ccc(N2C(=O)C(Cl)=C(Nc3ccccc3O)C2=O)cc1`, the “activity change, negative = inhibition” value is “inactive”.
As for `Oc1c(Cl)cc(Cl)c2c1NCCC2`, the “activity change, negative = inhibition” value is “inactive”.
In the case of `COc1cccc(C2C=C(c3cccs3)Nc3ncnn32)c1OC` (stereo unspecified), the AC50 was > 10 µM (inactive).
As for `COc1ccc(-c2cn[nH]c2-c2ccc(O)cc2O)cc1OC`, the “activity change, negative = inhibition” value is “inactive”.
